Results taken from paper PMC10603551 (Oncology Reports, 2023).
Counter-ions that a name gives are not always drawn.

Molecular target: T1, STAT5b (Homo sapiens, UniProt P51692)
T1 sequence (P51692 1-787): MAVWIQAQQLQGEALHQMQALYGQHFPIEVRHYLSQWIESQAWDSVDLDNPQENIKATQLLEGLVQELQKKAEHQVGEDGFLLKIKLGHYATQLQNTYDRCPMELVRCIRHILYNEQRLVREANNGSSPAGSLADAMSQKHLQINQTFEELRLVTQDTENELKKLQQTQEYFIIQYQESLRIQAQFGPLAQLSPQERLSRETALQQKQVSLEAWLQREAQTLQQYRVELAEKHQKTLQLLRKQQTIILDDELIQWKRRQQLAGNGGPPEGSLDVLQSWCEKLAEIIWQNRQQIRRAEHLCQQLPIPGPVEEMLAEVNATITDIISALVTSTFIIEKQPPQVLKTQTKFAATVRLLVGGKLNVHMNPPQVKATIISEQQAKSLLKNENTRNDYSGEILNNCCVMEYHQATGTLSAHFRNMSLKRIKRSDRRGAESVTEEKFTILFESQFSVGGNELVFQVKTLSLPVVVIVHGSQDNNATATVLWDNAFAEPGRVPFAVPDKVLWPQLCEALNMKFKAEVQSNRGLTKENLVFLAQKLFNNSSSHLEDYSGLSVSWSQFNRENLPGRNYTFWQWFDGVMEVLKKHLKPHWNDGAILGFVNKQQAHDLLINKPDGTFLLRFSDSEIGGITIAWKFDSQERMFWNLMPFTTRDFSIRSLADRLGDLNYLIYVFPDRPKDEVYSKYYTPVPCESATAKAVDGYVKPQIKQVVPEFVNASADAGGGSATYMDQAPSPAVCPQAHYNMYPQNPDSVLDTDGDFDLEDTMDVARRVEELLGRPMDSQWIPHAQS
Type: binding

Ki: 1 to 3 µM
SMILES: CC[C@@]1(O)C(=O)OCc2c1cc1n(c2=O)Cc2cc3c(CN(C)C)c(O)ccc3nc2-1 [compound 108, topotecan hydrochloride]
